Measured values taken from PubChem BioAssay AID540345 (The Scripps Research Institute Molecular Screening Center, 2011).
Activity calls are given as the source filed them. The rule behind the calls is not given here.

Assays:
Assay in all cases: selectivity profile over receptors, transporters, CYPs – biochemical, Ricerca HitProfilingScreen, CYP450, set 2, selectivity assay for GPR7 antagonist project, profiling panel (AID 540345)
[1] = target: 5-hydroxytryptamine receptor 2B (Homo sapiens) (UniProt P41595); conditions: Ricerca radioligand binding/CYP panel; Serotonin (5-Hydroxytryptamine) 5-HT2B; at 10 µM; active compounds read high
[2] = tested on: Adenosine A1; conditions: Ricerca radioligand binding/CYP panel, at 10 µM, active compounds read high
[3] = tested on: Adenosine A2A; conditions: Ricerca radioligand binding/CYP panel, at 10 µM, active compounds read high
[4] = tested on: Adrenergic alpha1A; conditions: Ricerca radioligand binding/CYP panel, at 10 µM, active compounds read high
[5] = tested on: Adrenergic alpha1B; conditions: Ricerca radioligand binding/CYP panel, at 10 µM, active compounds read high
[6] = tested on: Adrenergic beta1; conditions: Ricerca radioligand binding/CYP panel, at 10 µM, active compounds read high
[7] = target: Alpha-2A adrenergic receptor (Homo sapiens) (UniProt P08913); conditions: Ricerca radioligand binding/CYP panel; Adrenergic alpha2A; at 10 µM; active compounds read high
[8] = tested on: Alpha-2A adrenergic receptor (Homo sapiens) + Histamine H1 receptor (Homo sapiens) + Mu-type opioid receptor (Homo sapiens); conditions: Ricerca radioligand binding/CYP panel; at 10 µM; active compounds read high
[9] = target: Beta-2 adrenergic receptor (Homo sapiens) (UniProt P07550); conditions: Ricerca radioligand binding/CYP panel; Adrenergic beta2; at 10 µM; active compounds read high
[10] = tested on: CYP450 2C19; conditions: Ricerca radioligand binding/CYP panel, at 10 µM, active compounds read high
[11] = tested on: Calcium Channel L-Type; conditions: Ricerca radioligand binding/CYP panel, Dihydropyridine site, at 10 µM, active compounds read high
[12] = tested on: Cannabinoid CB1; conditions: Ricerca radioligand binding/CYP panel, at 10 µM, active compounds read high
[13] = target: Cytochrome P450 1A2 (Homo sapiens) (UniProt P05177); conditions: Ricerca radioligand binding/CYP panel; CYP450 1A2; at 10 µM; active compounds read high
[14] = target: Cytochrome P450 2C9 (Homo sapiens) (UniProt P11712); conditions: Ricerca radioligand binding/CYP panel; CYP450 2C9; at 10 µM; active compounds read high
[15] = target: Cytochrome P450 2D6 (Homo sapiens) (UniProt P10635); conditions: Ricerca radioligand binding/CYP panel; CYP450 2D6; at 10 µM; active compounds read high
[16] = target: Cytochrome P450 3A4 (Homo sapiens) (UniProt P08684); conditions: Ricerca radioligand binding/CYP panel; CYP450 3A4; at 10 µM; active compounds read high
[17] = target: D(1A) dopamine receptor (Homo sapiens) (UniProt P21728); conditions: Ricerca radioligand binding/CYP panel; Dopamine D1; at 10 µM; active compounds read high
[18] = tested on: Dopamine D2S; conditions: Ricerca radioligand binding/CYP panel, at 10 µM, active compounds read high
[19] = tested on: GABAA; conditions: Ricerca radioligand binding/CYP panel, central, at 10 µM, active compounds read high
[20] = tested on: Glutamate NMDA; conditions: Ricerca radioligand binding/CYP panel, Phencyclidine site, at 10 µM, active compounds read high
[21] = tested on: Histamine H1; conditions: Ricerca radioligand binding/CYP panel, at 10 µM, active compounds read high
[22] = target: Muscarinic acetylcholine receptor M2 (Homo sapiens) (UniProt P08172); conditions: Ricerca radioligand binding/CYP panel, at 10 µM, active compounds read high
[23] = target: Muscarinic acetylcholine receptor M3 (Homo sapiens) (UniProt P20309); conditions: Ricerca radioligand binding/CYP panel, at 10 µM, active compounds read high
[24] = tested on: Nicotinic Acetylcholine; conditions: Ricerca radioligand binding/CYP panel, at 10 µM, active compounds read high
[25] = tested on: Opiate mu (OP3, MOP); conditions: Ricerca radioligand binding/CYP panel, at 10 µM, active compounds read high
[26] = tested on: Prostanoid EP4; conditions: Ricerca radioligand binding/CYP panel, at 10 µM, active compounds read high
[27] = tested on: Sigma 1; conditions: Ricerca radioligand binding/CYP panel, at 10 µM, active compounds read high
[28] = tested on: Sodium Channel; conditions: Ricerca radioligand binding/CYP panel, Site 2, at 10 µM, active compounds read high
[29] = tested on: Transporter Norepinephrine (NET); conditions: Ricerca radioligand binding/CYP panel, at 10 µM, active compounds read high
[30] = target: Voltage-gated inwardly rectifying potassium channel KCNH2 (Homo sapiens) (UniProt Q12809); conditions: Ricerca radioligand binding/CYP panel; Potassium Channel hERG; at 10 µM; active compounds read high
Voltage-gated inwardly rectifying potassium channel KCNH2 (Homo sapiens), sequence (Q12809 whole entry, looked up): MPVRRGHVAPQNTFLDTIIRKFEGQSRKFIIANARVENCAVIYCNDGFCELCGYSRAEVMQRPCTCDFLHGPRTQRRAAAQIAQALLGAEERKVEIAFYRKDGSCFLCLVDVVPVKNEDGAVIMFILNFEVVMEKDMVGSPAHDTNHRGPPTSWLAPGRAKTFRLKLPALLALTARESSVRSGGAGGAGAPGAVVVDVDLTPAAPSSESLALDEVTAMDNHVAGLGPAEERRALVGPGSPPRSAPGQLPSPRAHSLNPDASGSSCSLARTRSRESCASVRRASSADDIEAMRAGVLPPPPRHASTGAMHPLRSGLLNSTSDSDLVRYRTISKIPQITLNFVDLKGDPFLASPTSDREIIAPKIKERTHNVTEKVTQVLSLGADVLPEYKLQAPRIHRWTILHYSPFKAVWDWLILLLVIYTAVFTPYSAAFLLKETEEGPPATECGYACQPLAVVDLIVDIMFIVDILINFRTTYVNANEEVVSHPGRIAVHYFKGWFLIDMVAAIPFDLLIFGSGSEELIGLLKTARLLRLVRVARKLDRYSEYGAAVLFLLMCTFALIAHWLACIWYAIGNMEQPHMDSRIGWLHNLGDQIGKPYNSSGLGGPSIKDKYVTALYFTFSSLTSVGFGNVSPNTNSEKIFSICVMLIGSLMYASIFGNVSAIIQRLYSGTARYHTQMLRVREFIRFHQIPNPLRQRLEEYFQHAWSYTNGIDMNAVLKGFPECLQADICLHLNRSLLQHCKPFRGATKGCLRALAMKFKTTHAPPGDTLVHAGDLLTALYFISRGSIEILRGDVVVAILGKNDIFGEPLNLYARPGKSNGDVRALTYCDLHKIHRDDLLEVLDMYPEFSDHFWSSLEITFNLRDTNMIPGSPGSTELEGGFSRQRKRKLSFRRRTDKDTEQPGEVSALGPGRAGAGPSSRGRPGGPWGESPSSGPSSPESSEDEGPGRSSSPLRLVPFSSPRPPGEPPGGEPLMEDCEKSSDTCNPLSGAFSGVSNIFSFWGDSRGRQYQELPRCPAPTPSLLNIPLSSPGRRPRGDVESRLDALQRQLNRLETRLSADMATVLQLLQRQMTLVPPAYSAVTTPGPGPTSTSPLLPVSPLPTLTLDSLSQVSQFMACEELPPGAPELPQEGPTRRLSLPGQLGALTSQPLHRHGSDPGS

D(1A) dopamine receptor (Homo sapiens), sequence (P21728 whole entry, looked up): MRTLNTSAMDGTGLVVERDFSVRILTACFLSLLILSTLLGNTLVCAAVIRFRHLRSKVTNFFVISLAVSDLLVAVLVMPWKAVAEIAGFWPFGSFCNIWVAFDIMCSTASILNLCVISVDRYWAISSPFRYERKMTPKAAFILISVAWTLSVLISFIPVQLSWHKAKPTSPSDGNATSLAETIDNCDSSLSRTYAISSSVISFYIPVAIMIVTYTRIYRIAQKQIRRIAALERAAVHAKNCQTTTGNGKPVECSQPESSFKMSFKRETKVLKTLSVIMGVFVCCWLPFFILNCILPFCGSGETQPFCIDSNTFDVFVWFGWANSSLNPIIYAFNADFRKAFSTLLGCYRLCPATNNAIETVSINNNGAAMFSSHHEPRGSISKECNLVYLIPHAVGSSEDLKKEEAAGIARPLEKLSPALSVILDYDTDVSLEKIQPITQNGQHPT
Cytochrome P450 1A2 (Homo sapiens), sequence (P05177 whole entry, looked up): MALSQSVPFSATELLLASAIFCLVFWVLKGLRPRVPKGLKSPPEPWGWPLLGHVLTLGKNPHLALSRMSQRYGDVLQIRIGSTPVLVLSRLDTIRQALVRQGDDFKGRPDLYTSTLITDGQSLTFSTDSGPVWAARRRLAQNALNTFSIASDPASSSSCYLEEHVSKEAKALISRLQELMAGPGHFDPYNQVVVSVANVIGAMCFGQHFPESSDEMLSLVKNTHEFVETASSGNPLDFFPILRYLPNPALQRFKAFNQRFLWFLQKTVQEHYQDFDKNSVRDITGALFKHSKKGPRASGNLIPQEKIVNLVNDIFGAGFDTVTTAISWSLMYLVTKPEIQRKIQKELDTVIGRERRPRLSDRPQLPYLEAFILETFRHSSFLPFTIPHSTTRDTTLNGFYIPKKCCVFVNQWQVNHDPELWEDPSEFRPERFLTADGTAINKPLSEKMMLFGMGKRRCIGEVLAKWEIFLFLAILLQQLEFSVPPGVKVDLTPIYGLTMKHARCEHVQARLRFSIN
Muscarinic acetylcholine receptor M2 (Homo sapiens), sequence (P08172 whole entry, looked up): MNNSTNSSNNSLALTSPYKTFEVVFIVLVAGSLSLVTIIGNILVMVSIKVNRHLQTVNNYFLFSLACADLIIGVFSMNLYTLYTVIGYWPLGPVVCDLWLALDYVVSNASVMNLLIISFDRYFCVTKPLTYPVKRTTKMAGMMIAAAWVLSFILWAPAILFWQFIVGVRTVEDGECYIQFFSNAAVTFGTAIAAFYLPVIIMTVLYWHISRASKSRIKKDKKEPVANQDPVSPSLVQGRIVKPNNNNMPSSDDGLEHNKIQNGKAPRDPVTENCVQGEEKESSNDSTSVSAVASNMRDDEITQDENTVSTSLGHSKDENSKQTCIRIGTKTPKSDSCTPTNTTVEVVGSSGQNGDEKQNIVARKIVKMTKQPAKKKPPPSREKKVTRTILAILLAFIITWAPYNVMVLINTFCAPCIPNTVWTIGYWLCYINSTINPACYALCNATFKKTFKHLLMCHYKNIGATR
Cytochrome P450 2C9 (Homo sapiens), sequence (P11712 whole entry, looked up): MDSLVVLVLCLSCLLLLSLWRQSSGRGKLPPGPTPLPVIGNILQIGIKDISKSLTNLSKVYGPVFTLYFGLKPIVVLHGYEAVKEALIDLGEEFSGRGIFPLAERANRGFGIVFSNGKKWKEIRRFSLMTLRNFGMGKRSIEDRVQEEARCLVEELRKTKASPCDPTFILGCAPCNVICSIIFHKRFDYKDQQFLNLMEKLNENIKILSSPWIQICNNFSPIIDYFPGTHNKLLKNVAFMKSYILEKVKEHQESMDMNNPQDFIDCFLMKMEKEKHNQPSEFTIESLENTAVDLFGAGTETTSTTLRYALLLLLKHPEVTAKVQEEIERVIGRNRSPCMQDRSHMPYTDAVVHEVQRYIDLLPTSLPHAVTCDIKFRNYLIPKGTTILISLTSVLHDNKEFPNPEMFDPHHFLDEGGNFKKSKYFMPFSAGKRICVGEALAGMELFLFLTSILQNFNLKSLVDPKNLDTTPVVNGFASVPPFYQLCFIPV
Alpha-2A adrenergic receptor (Homo sapiens), sequence (P08913 whole entry, looked up): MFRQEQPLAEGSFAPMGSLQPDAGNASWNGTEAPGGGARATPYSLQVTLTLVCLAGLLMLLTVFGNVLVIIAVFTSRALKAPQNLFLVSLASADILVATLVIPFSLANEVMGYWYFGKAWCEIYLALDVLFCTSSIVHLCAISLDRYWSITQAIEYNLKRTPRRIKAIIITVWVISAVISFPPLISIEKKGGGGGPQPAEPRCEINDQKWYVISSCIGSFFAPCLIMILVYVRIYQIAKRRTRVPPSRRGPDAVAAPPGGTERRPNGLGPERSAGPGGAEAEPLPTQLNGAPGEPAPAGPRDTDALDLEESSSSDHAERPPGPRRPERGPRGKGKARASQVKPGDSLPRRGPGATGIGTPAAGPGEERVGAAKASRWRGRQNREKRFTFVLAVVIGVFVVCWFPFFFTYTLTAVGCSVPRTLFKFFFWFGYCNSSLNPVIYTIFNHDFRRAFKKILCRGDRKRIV
Cytochrome P450 3A4 (Homo sapiens), sequence (P08684 whole entry, looked up): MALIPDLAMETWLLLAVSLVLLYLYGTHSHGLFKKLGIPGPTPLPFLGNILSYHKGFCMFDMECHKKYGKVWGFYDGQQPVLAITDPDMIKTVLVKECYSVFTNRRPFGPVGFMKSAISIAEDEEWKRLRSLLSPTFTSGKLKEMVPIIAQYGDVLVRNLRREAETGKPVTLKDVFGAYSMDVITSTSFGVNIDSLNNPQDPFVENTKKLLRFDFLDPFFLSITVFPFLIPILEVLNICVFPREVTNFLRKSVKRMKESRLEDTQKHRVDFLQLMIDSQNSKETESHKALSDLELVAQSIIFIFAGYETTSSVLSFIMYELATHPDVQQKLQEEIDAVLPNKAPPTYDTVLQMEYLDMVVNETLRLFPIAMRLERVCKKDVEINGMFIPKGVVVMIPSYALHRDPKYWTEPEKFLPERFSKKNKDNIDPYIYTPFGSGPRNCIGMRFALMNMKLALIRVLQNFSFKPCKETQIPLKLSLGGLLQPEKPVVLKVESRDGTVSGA
Muscarinic acetylcholine receptor M3 (Homo sapiens), sequence (P20309 whole entry, looked up): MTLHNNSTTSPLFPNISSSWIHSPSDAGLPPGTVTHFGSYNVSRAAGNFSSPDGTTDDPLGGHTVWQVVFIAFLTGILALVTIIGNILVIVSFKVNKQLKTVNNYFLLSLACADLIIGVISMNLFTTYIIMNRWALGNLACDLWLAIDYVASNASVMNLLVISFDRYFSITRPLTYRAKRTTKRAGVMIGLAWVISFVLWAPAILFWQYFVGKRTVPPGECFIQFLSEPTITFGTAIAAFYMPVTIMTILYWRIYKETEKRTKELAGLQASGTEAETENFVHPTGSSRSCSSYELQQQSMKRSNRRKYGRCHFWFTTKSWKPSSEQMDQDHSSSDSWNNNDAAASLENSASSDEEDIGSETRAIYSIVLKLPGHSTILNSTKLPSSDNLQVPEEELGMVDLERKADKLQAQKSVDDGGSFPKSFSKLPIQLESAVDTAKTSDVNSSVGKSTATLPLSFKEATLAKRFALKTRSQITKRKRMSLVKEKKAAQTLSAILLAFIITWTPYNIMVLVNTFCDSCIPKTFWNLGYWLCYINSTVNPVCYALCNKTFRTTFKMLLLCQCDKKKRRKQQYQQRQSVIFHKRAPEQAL

COc1ccc(Oc2c(Cl)cnn(C3c4ccccc4-c4ccccc43)c2=O)cc1
inhibition [1]: 63%
inhibition [2]: 7% (inactive)
inhibition [3]: 15% (inactive)
inhibition [4]: -1% (inactive)
inhibition [5]: 8% (inactive)
inhibition [6]: 7% (inactive)
inhibition [7]: 5% (inactive)
inhibition [8]: 8% (inactive)
inhibition [9]: 4% (inactive)
inhibition [10]: 51%
inhibition [11]: 33% (inactive)
inhibition [12]: 9% (inactive)
inhibition [13]: 67%
inhibition [14]: 13% (inactive)
inhibition [15]: 2% (inactive)
inhibition [16]: 26% (inactive)
inhibition [17]: 14% (inactive)
inhibition [18]: -1% (inactive)
inhibition ([19]; Flunitrazepam site): 0% (inactive)
inhibition ([19]; Muscimol site): 7% (inactive)
inhibition [20]: -18% (inactive)
inhibition [21]: 17% (inactive)
inhibition [22]: -2% (inactive)
inhibition [23]: -1% (inactive)
inhibition [24]: -16% (inactive)
inhibition [25]: 1% (inactive)
inhibition [26]: 5% (inactive)
inhibition [27]: 6% (inactive)
inhibition [28]: 36% (inactive)
inhibition [29]: 42% (inactive)
inhibition [30]: 28% (inactive)
